Laboratory results: patent US7449473B2, “Substituted pyrrolo[3,2-d]pyrimidin-2,4-diones as A2b adenosine receptor antagonists” (CV Therapeutics, Inc., priority 2003, dated 2008)

Biological target: T1, Human A2B adenosine receptor (Homo sapiens, UniProt P29275)
T1 construct: expressed in transfected cells; host or cells: HEK-293 (HEK-A2B), membrane preparation
T1 sequence (P29275 1-332): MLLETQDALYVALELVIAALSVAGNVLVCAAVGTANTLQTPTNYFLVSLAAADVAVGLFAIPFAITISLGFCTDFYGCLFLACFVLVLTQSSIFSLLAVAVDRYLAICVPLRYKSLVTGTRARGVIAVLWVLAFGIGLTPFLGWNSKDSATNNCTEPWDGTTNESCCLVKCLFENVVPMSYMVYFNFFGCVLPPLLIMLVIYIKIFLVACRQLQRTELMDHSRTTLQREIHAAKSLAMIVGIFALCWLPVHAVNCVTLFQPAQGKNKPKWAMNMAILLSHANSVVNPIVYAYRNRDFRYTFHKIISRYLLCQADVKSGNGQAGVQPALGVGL
Experiment: Radioligand binding for A2B adenosine receptor (3H-ZM241385 competition, HEK-A2B membranes)
Conditions: competition with 10 nM 3H-ZM241385, HEK-A2B cell membranes
Procedure: Radioligand Binding for A2B Adenosine Receptor.
Human A2B adenosine receptor cDNA was stably transfected into HEK-293 cells (referred to as HEK-A2B cells). Monolayer of HEK-A2B cells were washed with PBS once and harvested in a buffer containing 10 mM HEPES (pH 7.4), 10 mM EDTA and protease inhibitors. These cells were homogenized in polytron for 1 minute at setting 4 and centrifuged at 29000 g for 15 minutes at 4° C. The cell pellets were washed once with a buffer containing 10 mM HEPES (pH7.4), 1 mM EDTA and protease inhibitors, and were resuspended in the same buffer supplemented with 10% sucrose. Frozen aliquots were kept at −80° C. Competition assays were started by mixing 10 nM ^3H-ZM241385 (Tocris Cookson) with various concentrations of test compounds and 50 μg membrane proteins in TE buffer (50 mM Tris and 1 mM EDTA) supplemented with 1 Unit/mL adenosine deaminase. The assays were incubated for 90 minutes, stopped by filtration using Packard Harvester and washed four times with ice-cold TM buffer (10 mM Tris, 1 mM MgCl2, pH 7.4). Non specific binding was determined in the presence of 10 μM ZM241385. The affinities of compounds (i.e. Ki values) were calculated using GraphPad software.

SMILES	Ki
CCCn1c(=O)c2[nH]c(-c3cnn(Cc4cccc(F)c4)c3)cc2n(CCC)c1=O [8-(1-(3-fluorobenzyl)-1H-pyrazol-4-yl)-1,3-dipropyl-1H-pyrrolo[3,2-d]pyrimidine-2,6-dione]	13 nM
CCCn1c(=O)c2c(cc(-c3cnn(Cc4ccccc4)c3)n2O)n(CCC)c1=O [8-(1-benzyl-1H-pyrazol-4-yl)-7-hydroxy-1,3-dipropyl-1H-pyrrolo[3,2-d]pyrimidine-2,6-dione]	120 nM
CCCn1c(=O)c2c(cc(-c3ccccn3)n2O)n(CCC)c1=O [1,3-dipropyl-8-(pyridin-2-yl)-7-hydroxy-1H-pyrrolo[3,2-d]pyrimidine-2,6-dione]	129 nM
CCCn1c(=O)c2[nH]c(-c3cc[n+]([O-])cc3)cc2n(CCC)c1=O [8-(N-oxypyridin-4-yl)-1,3-dipropyl-1H-pyrrolo[3,2-d]pyrimidine-2,6-dione]	544 nM
CCCn1c(=O)c2[nH]c(-c3cnn(Cc4ccccc4)c3)cc2n(CCC)c1=O [6-[1-benzylpyrazol-4-yl]-1,3-dipropyl-1,3-dihydropyrrolo[3,2-d]pyrimidine-2,4-dione]	26 nM
CCCn1c(=O)c2c(cc(-c3cnn(Cc4cccc(C(F)(F)F)c4)c3)n2O)n(CCC)c1=O [8-(1-(3-(trifluoromethyl)benzyl)-1H-pyrazol-4-yl)-7-hydroxy-1,3-dipropyl-1H-pyrrolo[3,2-d]pyrimidine-2,6-dione]	9 nM
CCCn1c(=O)c2c(cc(-c3ccncc3)n2O)n(CCC)c1=O [8-(pyridin-4-yl)-7-hydroxy-1,3-dipropyl-1H-pyrrolo[3,2-d]pyrimidine-2,6-dione]	12 nM
